Tested on: lawn grass (European grass, evergreen lawn grass)
Assay: Hydroponic cultivation of a lawn grass: withering prevention and growth
Type: in vivo
Details: for Average root length / Leaf length MAX. / Leaf length MIN. / Total weight of living plant: 5 stocks; for Number of days till the plants were withered: from transplantation till about 70 percent of the leaves were withered
Protocol: Seedlings of a lawn grass (European grass, evergreen lawn grass) were cultivated and divided into eight groups of A to H, one group being composed of 80 stocks. In the groups B to H, inosine and uridine were added to each hydroponic liquid in such amount that the concentration became as shown in the table, and proline was diluted with water such that the concentration became as shown in the table and sprayed onto the leaves every day. Group A was the control.
On the 35th day, five average stocks which had not been withered were sampled from each group. […] In the table, the number of days till the plants were withered means the number of days from transplantation of the seedlings till about 70 percent of the leaves were withered.

[1] = group D: 2 ppm proline sprayed onto leaves every day, 35th day
[2] = group F: 35 ppm proline sprayed onto leaves every day, 35th day
[3] = group G: 0.1 ppm proline sprayed onto leaves every day, 35th day
[4] = group B: 2 ppm inosine in hydroponic liquid
[5] = group B: 2 ppm inosine in hydroponic liquid, 35th day

`O=C(O)[C@@H]1CCCN1` [proline] was tested, and the Remarks (group D: 2 ppm proline) was “Both leaves and steins”, the Average root length [1] was 3 cm and the “Leaf length MAX.” value [1] was 21 cm. For the same molecule, the “Leaf length MIN.” value [1] was 12 cm, the “Total weight of living plant” value [1] was 0.54 g and the “Number of days till the plants were withered” value (from here on “Number”) (group D: 2 ppm proline) was 38 days. For the same molecule, the Remarks (group F: 35 ppm proline) was “Partially wilted”, the Average root length [2] was 2 cm and the “Leaf length MAX.” value [2] was 20 cm. For the same molecule, the “Leaf length MIN.” value [2] was 8 cm, the “Total weight of living plant” value [2] was 0.28 g and the “Number” value (group F: 35 ppm proline) was 28 days. For the same molecule, the Remarks (group G: 0.1 ppm proline) was “Partially wilted”, the Average root length [3] was 2 cm and the “Leaf length MAX.” value [3] was 19 cm. For the same molecule, the “Leaf length MIN.” value [3] was 7 cm, the “Total weight of living plant” value [3] was 0.22 g and the “Number” value (group G: 0.1 ppm proline) was 27 days. The “Growth at the root, leaf length and total weight of the living plants” value (proline-treated plot, especially at a concentration of 2 ppm, 35th day) was “better growth”.

In the case of `OC[C@H]1O[C@@H](n2cnc3c(O)ncnc32)[C@H](O)[C@@H]1O` [inosine, reference compound], the Remarks [4] is reported as “Wilted and partially”, the Average root length [5] is reported as 2 cm and the “Leaf length MAX.” value [5] is reported as 27 cm. The “Leaf length MIN.” value [5] was 8 cm, the “Total weight of living plant” value [5] was 0.22 g and the “Number” value [4] was 25 days.
